**Q.** With `Oc1cccc(-n2cncn2)c1` as the molecule, how does the melting point read?
**A.** 181 to 183 °C

**Q.** For `Cc1ccccc1-n1c(S)nc2sc3c(c2c1=O)CCC(C)C3` (configuration not stated), which melting point is on record?
**A.** 230 to 232 °C

**Q.** With `CC1Cc2ccccc2N1C(=O)C1CCCCC1C(=O)O` (configuration not stated) as the molecule, how does the melting point read?
**A.** 123 to 125 °C

**Q.** For `SCc1c(Cl)cccc1Cl`, which melting point is on record?
**A.** 44 to 46 °C

**Q.** With `Nc1ccc(Cl)c(S(=O)(=O)N2CCCCC2)c1` as the molecule, how does the melting point read?
**A.** 92 to 96 °C

**Q.** With `NC(=S)NCC1CCC1` as the molecule, how does the melting point read?
**A.** 123 to 125 °C

**Q.** For `CC(C(N)=NO)n1ccnc1` (configuration not stated), which melting point is on record?
**A.** 151 to 153 °C

**Q.** With `CC(SCc1nc2ccccc2c(=O)[nH]1)C(=O)O` (configuration not stated) as the molecule, how does the melting point read?
**A.** 204 to 206 °C

**Q.** With `COCCOc1cccc(CNC(=O)CCl)c1` as the molecule, how does the melting point read?
**A.** 90 to 92 °C

**Q.** For `CNC(=O)OCC(F)(F)F`, which melting point is on record?
**A.** 35 to 37 °C

**Q.** Which melting point does the source give for `NS(=O)(=O)CCS(=O)(=O)c1ccc(F)cc1` here?
**A.** 173 to 175 °C

**Q.** Which melting point does the source give for `O=S(=O)(Cl)c1ccc(S(=O)(=O)C(F)F)cc1` here?
**A.** 139 to 141 °C

**Q.** Which melting point does the source give for `CNC(=O)c1cccc(N)c1C` here?
**A.** 178 to 180 °C

**Q.** For `O=c1[nH]c(CN2CCOCC2)nc2sc3c(c12)CCCC3`, which melting point is on record?
**A.** 162 to 164 °C

**Q.** For `COC(=O)c1ncsc1S(N)(=O)=O`, which melting point is on record?
**A.** 155 to 157 °C

**Q.** With `O=C(CCl)Nc1ccc(SC(F)F)cc1` as the molecule, how does the melting point read?
**A.** 55 to 57 °C

**Q.** With `COc1ncc(N)cc1C(N)=O` as the molecule, how does the melting point read?
**A.** 144 to 146 °C

**Q.** With `O=C(O)C1CCCN(C(=O)Cc2ccc(F)cc2)C1` (configuration not stated) as the molecule, how does the melting point read?
**A.** 122 to 124 °C

**Q.** Which melting point does the source give for `CC(C)(C)c1ccc(CCCC(=O)O)cc1` here?
**A.** 53 to 55 °C

**Q.** For `COc1ccc(/C=C/C(=O)O)cc1S(=O)(=O)Cl`, which melting point is on record?
**A.** 184 to 186 °C

**Q.** With `CC(Cl)C(=O)NCCc1ccc2c(c1)OCCO2` (configuration not stated) as the molecule, how does the melting point read?
**A.** 106 to 108 °C

**Q.** With `Cc1csc(-c2ccc(C(=O)O)cc2)n1` as the molecule, how does the melting point read?
**A.** 208 to 210 °C

**Q.** For `CS(=O)(=O)Nc1ccc(Cl)c(N)c1`, which melting point is on record?
**A.** 156 to 158 °C

**Q.** Which melting point does the source give for `CN(CC(=O)N1CCOCC1)C(=O)CCl` here?
**A.** 75 to 77 °C

**Q.** For `Nc1ccccc1CC(=O)O`, which melting point is on record?
**A.** 119 to 121 °C

**Q.** For `Cc1nnc(N2CCC(=O)CC2)s1`, which melting point is on record?
**A.** 95 to 97 °C

**Q.** With `Cc1ccc(/C=C/C(=O)O)s1` as the molecule, how does the melting point read?
**A.** 160 to 162 °C

**Q.** Which melting point does the source give for `CC(N)c1ccc(N2CCCC2=O)cc1` (configuration not stated) here?
**A.** 62 to 64 °C

**Q.** Which melting point does the source give for `COc1cc(CC#N)ccc1SC(F)(F)F` here?
**A.** 59 to 61 °C

**Q.** For `CN(C)S(=O)(=O)c1ccc(O)c(N)c1`, which melting point is on record?
**A.** 154 to 156 °C

**Q.** With `Oc1nc(O)c2c(n1)CCC2` as the molecule, how does the melting point read?
**A.** 324 to 326 °C

**Q.** With `CS(=O)(=O)c1nc2cc(Br)cnc2[nH]1` as the molecule, how does the melting point read?
**A.** 222 to 224 °C

**Q.** Which melting point does the source give for `O=C(O)CSc1nccn1-c1cccc(F)c1` here?
**A.** 140 to 142 °C

**Q.** For `CC(CC(=O)O)NS(=O)(=O)c1cccnc1Cl` (configuration not stated), which melting point is on record?
**A.** 144 to 146 °C

**Q.** With `COC(=O)c1c(Cl)c([N+](=O)[O-])cc([N+](=O)[O-])c1Cl` as the molecule, how does the melting point read?
**A.** 97 to 99 °C

**Q.** With `Cc1ccc(Br)c2c1NC(=O)C2=O` as the molecule, how does the melting point read?
**A.** 239 to 241 °C

**Q.** With `O=C(c1ccccc1)c1ccccc1Br` as the molecule, how does the melting point read?
**A.** 72 to 74 °C

**Q.** Which melting point does the source give for `Cc1n[nH]cc1N` here?
**A.** 93 to 95 °C

**Q.** Which melting point does the source give for `CNC1(C(N)=O)CCCC1` here?
**A.** 99 to 101 °C

**Q.** With `O=C(O)/C=C/c1cn(Cc2ccccc2Cl)nc1-c1ccccc1` as the molecule, how does the melting point read?
**A.** 148 to 150 °C

**Q.** With `Cc1cc(C#N)ccc1Oc1ccc(C(=O)O)cc1` as the molecule, how does the melting point read?
**A.** 212 to 214 °C

**Q.** Which melting point does the source give for `Nc1ccnc(-c2ccccc2)c1` here?
**A.** 126 to 128 °C

**Q.** For `CC(C)Cc1nc(C#N)c(NN)o1`, which melting point is on record?
**A.** 102 to 104 °C

**Q.** With `Nc1ccc(Oc2ccc(CO)cc2)cc1` as the molecule, how does the melting point read?
**A.** 79 to 81 °C

**Q.** Which melting point does the source give for `OCCCOc1ccc(Br)cc1` here?
**A.** 34 to 36 °C

**Q.** Which melting point does the source give for `CS(=O)(=O)c1ccccc1-n1cc(C(=O)O)cn1` here?
**A.** 225 to 227 °C

**Q.** For `O=C(O)c1cc2ccccc2c(Nc2ccccc2F)n1`, which melting point is on record?
**A.** 224 to 226 °C

**Q.** With `O=C(O)Cc1c[nH]c2ccc(F)cc12` as the molecule, how does the melting point read?
**A.** 139 to 141 °C

**Q.** For `O=C(O)C(NS(=O)(=O)c1cccc(Cl)c1)c1ccccc1` (configuration not stated), which melting point is on record?
**A.** 168 to 170 °C

**Q.** With `CCOC(=O)c1c(CC(C)C)csc1N` as the molecule, how does the melting point read?
**A.** 58 to 60 °C

**Q.** For `CCC(C#N)NC(=O)OC(C)(C)C` (configuration not stated), which melting point is on record?
**A.** 78 to 80 °C

**Q.** With `NS(=O)(=O)N1CCCCC1` as the molecule, how does the melting point read?
**A.** 121 to 123 °C

**Q.** With `O=C(O)c1cc(F)cc2cccnc12` as the molecule, how does the melting point read?
**A.** 159 to 161 °C

**Q.** With `O=C(O)C1CCN(S(=O)(=O)c2cc(F)ccc2F)CC1` as the molecule, how does the melting point read?
**A.** 149 to 151 °C

**Q.** With `CNCCCOc1ccc(S(C)(=O)=O)cc1` as the molecule, how does the melting point read?
**A.** 43 to 45 °C

**Q.** For `CCN1CCN(c2ccc(Cl)cc2N)CC1`, which melting point is on record?
**A.** 110 to 112 °C

**Q.** Which melting point does the source give for `CCNC(=O)NC(C)(C)C(=O)O` here?
**A.** 150 to 152 °C

**Q.** Which melting point does the source give for `CC1CCCCN1C(=O)c1ccc(N)cc1Cl` (configuration not stated) here?
**A.** 186 to 188 °C

**Q.** Which melting point does the source give for `COCc1c(C(=O)O)sc2ccccc12` here?
**A.** 159 to 161 °C

**Q.** With `O=C(O)c1cc([N+](=O)[O-])cc(Cl)c1F` as the molecule, how does the melting point read?
**A.** 180 to 182 °C

**Q.** Which melting point does the source give for `O=C1CCOc2ccccc2N1` here?
**A.** 109 to 111 °C

**Q.** For `CCOC(=O)c1c(C)[nH]c(C=O)c1C`, which melting point is on record?
**A.** 162 to 164 °C

**Q.** For `CS(=O)(=O)c1ccc(CCN)cc1`, which melting point is on record?
**A.** 76 to 78 °C

**Q.** For `O=C1COc2c1ccc(Cl)c2Cl`, which melting point is on record?
**A.** 141 to 143 °C

**Q.** For `Cc1cc(-c2nc3cc(F)ccc3s2)ccc1N`, which melting point is on record?
**A.** 191 to 193 °C

**Q.** With `O=C1CCN(C(=O)c2ccccc2Cl)CC1` as the molecule, how does the melting point read?
**A.** 107 to 109 °C

**Q.** With `CCCOc1ccccc1C(N)=S` as the molecule, how does the melting point read?
**A.** 100 to 102 °C

**Q.** For `O=C(O)c1csc(-c2ccc(Cl)cc2Cl)n1`, which melting point is on record?
**A.** 204 to 206 °C

**Q.** Which melting point does the source give for `CCc1nonc1N` here?
**A.** 69 to 71 °C

**Q.** With `Cc1ncc(NC(=O)OC(C)(C)C)s1` as the molecule, how does the melting point read?
**A.** 147 to 149 °C

**Q.** With `Nc1cc(C2CCOCC2)[nH]n1` as the molecule, how does the melting point read?
**A.** 103 to 105 °C

**Q.** Which melting point does the source give for `COc1ccc(OC)c(C(O)CN)c1` (configuration not stated) here?
**A.** 96 to 98 °C

— a melting point compilation (Tetko et al.)
